Test results taken from PubChem BioAssay (NCI).
Where “and” joins values, the source holds several entries; their conditions need not be identical. Equal entries are not always repeated.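 How tested: cells in 96-well plates exposed to compound for 48 hours at five concentrations. GI50 = concentration required for 50% inhibition of growth. At the TGI there is no net growth.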

Key:
Assay in all cases: NCI-60 cell line screen, 48 h
COLO 205 colon = test system: COLO 205 colon
HOP-62 NSCLC = test system: HOP-62 NSCLC
HS 578T breast = test system: HS 578T breast
KM12 colon = test system: KM12 colon
LOX IMVI melanoma = test system: LOX IMVI melanoma
MCF7 breast = test system: MCF7 breast
SF-268 CNS = test system: SF-268 CNS
T-47D breast = test system: T-47D breast
TK-10 renal = test system: TK-10 renal
CCRF-CEM leukemia = test system: CCRF-CEM leukemia

| SMILES | TGI (COLO 205 colon) | TGI (HOP-62 NSCLC) | TGI (HS 578T breast) [µM] | TGI (KM12 colon) | TGI (LOX IMVI melanoma) | TGI (MCF7 breast) [µM] | TGI (SF-268 CNS) | TGI (T-47D breast) [µM] | TGI (TK-10 renal) | GI50 (CCRF-CEM leukemia) [µM] | TGI (CCRF-CEM leukemia) | GI50 (COLO 205 colon) [µM] | GI50 (HOP-62 NSCLC) [µM] | GI50 (KM12 colon) [µM] | GI50 (LOX IMVI melanoma) [µM] | GI50 (SF-268 CNS) [µM] | GI50 (TK-10 renal) [µM] | GI50 (HS 578T breast) [µM] | GI50 (MCF7 breast) [µM] | GI50 (T-47D breast) [µM] |
| --- | --- | --- | --- | --- | --- | --- | --- | --- | --- | --- | --- | --- | --- | --- | --- | --- | --- | --- | --- | --- |
| O=S1(=O)NC2CCC3NS(=O)(=O)NC4CCC(N1)N4S(=O)(=O)N23 (configuration not stated) | > 100 µM | > 100 µM | > 100 | > 100 µM | > 100 µM | > 100 | > 100 µM | > 100 | > 100 µM | – | – | – | – | – | – | – | – | – | – | – |
| CC(=O)[CH-]C(=O)c1ccccc1.CC(=O)[CH-]C(=O)c1ccccc1.CC[C@H](/C=C/C(C)[C@H]1CCC2[C@@H]3CC=C4C[C@@H]([O-])CC[C@]4(C)C3CC[C@@]21C)C(C)C.CC[O-].[Ti+4] (some centres not stated) | > 100 µM | > 100 µM | – | > 100 µM | > 100 µM | – | > 100 µM | – | > 100 µM | 61.4 | > 100 µM | > 100 | > 100 | > 100 | > 100 | > 100 | > 100 | – | – | – |
| CCC(C)[C@H](NC(=O)NC(=O)NC(=O)CI)C(=O)OC (some centres not stated) | 3.6 µM | 31.4 µM | 73.5 | 33.2 µM | 3.27 µM | 12.9 | 28.5 µM | 34.8 | 11.8 µM | – | – | 1.77 | 16.3 | 16.6 | 1.69 | 12.6 | 2.96 | 23.5 | 3.02 | 10 |
| COC(=O)C[CH2][Ge]([CH3])([CH3])[S]c1ccccc1 | 69.9 µM | 65.4 µM | – | > 100 µM | 26.2 µM | – | 43.7 µM | – | > 100 µM | 5.27 | 24.3 µM | 30.4 | 22.6 | 36 | 12.5 | 18.2 | 55.7 | – | – | – |
| O=C(N/C(=C\c1ccc(/C=C(\NC(=O)c2ccccc2)c2nc3cc(Cl)ccc3[nH]2)cc1)c1nc2cc(Cl)ccc2[nH]1)c1ccccc1 | 51.3 µM | > 100 µM | – | 88.7 µM | > 100 µM | – | 73.5 µM | – | 79 µM | – | > 100 µM | – | – | – | – | – | – | – | – | – |
| CSc1nc2c(nc(N)n2C2OC(COC(C)=O)C(OC(C)=O)C(OC(C)=O)C2OC(C)=O)c(=O)n1C (configuration not stated) | > 100 µM | > 100 µM | – | > 100 µM | > 100 µM | – | – | – | > 100 µM | – | > 100 µM | – | – | – | – | – | – | – | – | – |
| Cn1c(=O)c2ccc(-c3ccc(Br)cc3)nc2n(C)c1=O | > 100 µM | > 100 µM | – | > 100 µM | > 100 µM | – | > 100 µM | – | > 100 µM | – | > 100 µM | – | – | – | – | – | – | – | – | – |
| Cn1c2ccccc2c(=O)c2c(O)cc3c(c21)CC(C1(C)CO1)O3 (configuration not stated) | 19.7 µM | 11.3 µM | 5.31 | 6.52 µM | 0.0613 µM | 1.89 | 4.11 µM | 24.9 | 42 µM | – | – | – | – | – | – | – | – | – | – | – |
| C=C(C)C1CC=C(C)CC1 (configuration not stated) | > 100 µM and 1760 µM | > 100 µM and 1630 µM | – | > 100 µM and 1830 µM | > 100 µM and 1620 µM | – | > 100 µM and 1680 µM | – | > 100 µM and 1760 µM | > 100 | > 100 µM and 1670 µM | > 100 | > 100 | > 100 | > 100 | > 100 | > 100 | – | – | – |
| NC1=NN(c2ccccc2)C(=O)C1/C(=N\NC(=O)c1cc2ccccc2cc1O)C(=O)Nc1cccc(C(F)(F)F)c1 (configuration not stated) | > 100 µM | > 100 µM | – | > 100 µM | > 100 µM | – | > 100 µM | – | > 100 µM | – | 34.1 µM | – | – | – | – | – | – | – | – | – |
| N.N.O=P([O-])([O-])CN(CCN(CP(=O)([O-])[O-])CP(=O)([O-])[O-])CP(=O)([O-])[O-].[Pt+2] | > 100 µM | > 100 µM | – | > 100 µM | > 100 µM | – | > 100 µM | – | > 100 µM | – | – | > 100 | > 100 | > 100 | > 100 | > 100 | > 100 | – | – | – |
| Cc1ccc(NC(=O)CC/C(CC(=O)C(C)(C)C)=N/NC(=O)C[N+](C)(C)C)cc1C | > 100 µM | > 100 µM | – | > 100 µM | > 100 µM | – | > 100 µM | – | > 100 µM | – | > 100 µM | – | – | – | – | – | – | – | – | – |
| CCOC(=O)c1ccc2c(c1)nc(/C=C/c1ccc(Cl)cc1)n2-c1cc(C(C)(C)C)[nH]n1 | > 100 µM | 28.8 µM | 61.8 | > 100 µM | – | 10.2 | > 100 µM | 52.4 | 7.2 µM | 7.54 | > 100 µM | 28.6 | 5.24 | 12.9 | – | 5.86 | 3.11 | 3.6 | 2.71 | 5.82 |
| CCOc1ccc2c(C)cc(=O)oc2c1 | > 100 µM | > 100 µM | > 100 | > 100 µM | > 100 µM | > 100 | > 100 µM | > 100 | – | – | > 100 µM | – | – | – | – | – | – | – | – | – |
| COc1cccc(NC(=O)C(C)(C)C)c1SSc1c(NC(=O)C(C)(C)C)cccc1OC | 69.9 µM | > 100 µM | – | > 95.5 µM | 30.4 µM | – | 32.7 µM | – | > 100 µM | – | > 89.5 µM | – | – | – | – | – | – | – | – | – |
| NCCCn1c2c(c3ccc([N+](=O)[O-])cc3c1=O)C(=O)c1cc(-c3ccccc3)ccc1-2 | – | 1.46 µM | – | 0.818 µM | 2.59 µM | 1.32 | – | – | – | 0.238 | 0.712 µM | – | 0.406 | 0.291 | 0.916 | – | – | – | 0.357 | – |
| C/C=C(/CCC1NCCC2c3ccccc3NC12)[Si](C)(C)C (configuration not stated) | 3.15 µM | 28.6 µM | – | 15.6 µM | 20.2 µM | – | 23.5 µM | – | 28.8 µM | – | 57 µM | – | – | – | – | – | – | – | – | – |
| C[C@]12CCC[C@H](O)[C@H]1C[C@H](CO)CC2 | > 100 µM | > 100 µM | – | > 100 µM | > 100 µM | – | > 100 µM | – | > 100 µM | – | > 100 µM | – | – | – | – | – | – | – | – | – |
| Cc1cc(=O)n2c3c(c4c(cc13)c(CO)cc(=O)n4C)OC2 | > 100 µM | 40.2 µM | – | > 100 µM | 21.1 µM | – | 52.6 µM | – | 62.4 µM | – | 56.8 µM | – | – | – | – | – | – | – | – | – |
| C=C1CC[C@@H]2[C@](C)(COC(C)=O)[C@H](OC(C)=O)CC[C@@]2(C)[C@@H]1CC(Nc1ccc(S(=O)(=O)Nc2cc(C)on2)cc1)C1=CCOC1=O (some centres not stated) | 4.34 µM | 22.9 µM | 26.7 | 3.69 µM | 2.54 µM | – | 6.11 µM | 7.37 | 7.11 µM | 0.477 | 2.71 µM | 1.97 | 8.88 | 1.83 | 1.18 | 2.35 | 3.04 | 3.92 | – | 2.8 |
